The assay addresses T1, human recombinant renin (Homo sapiens, UniProt P00797).
T1 sequence (P00797 67-406): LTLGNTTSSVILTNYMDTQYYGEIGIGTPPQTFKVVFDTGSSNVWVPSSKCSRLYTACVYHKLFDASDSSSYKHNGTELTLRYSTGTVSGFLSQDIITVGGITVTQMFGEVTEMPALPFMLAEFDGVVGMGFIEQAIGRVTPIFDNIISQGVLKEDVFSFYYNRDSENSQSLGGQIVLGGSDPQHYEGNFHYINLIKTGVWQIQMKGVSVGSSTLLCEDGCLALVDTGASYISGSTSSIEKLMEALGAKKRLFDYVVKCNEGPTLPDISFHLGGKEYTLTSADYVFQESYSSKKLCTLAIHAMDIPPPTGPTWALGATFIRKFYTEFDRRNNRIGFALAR
The experiment in a line: Inhibition of human recombinant renin, enzymatic in vitro assay with Ang I detection by EIA. The class given is biochemical. Conditions: human recombinant renin 0.16 ng/mL, synthetic human angiotensin (1-14) 0.5 μM, 37° C. for 3 h; read-out: IC50 (concentration of renin inhibition that inhibited the enzyme activity by 50%). The method, then: Inhibition of Human Recombinant Renin by the Compounds of the Invention The enzymatic in vitro assay was performed in 384-well polypropylene plates (Nunc). The assay buffer consisted of 10 mM PBS (Gibco BRL) including 1 mM EDTA and 0.1% BSA. The incubates were composed of 50 μL per well of an enzyme mix and 2.5 µL of renin inhibitors in DMSO. The enzyme mix was premixed at 4° C. and consists of the following components: • human recombinant renin (0.16 ng/mL)●synthetic human angiotensin (1-14) (0.5 μM) • hydroxyquinoline sulfate (1 mM) The mixtures were then incubated at 37° C. for 3 h. To determine the enzymatic activity and its inhibition, the accumulated Ang I was detected by an enzyme immunoassay (EIA) in 384-well plates (Nunc). 5 μL of the incubates or standards were transferred to immuno plates which were previously coated with a covalent complex of Ang I and bovine serum albumin (Ang I—BSA). 75 μL of Ang I-antibodies in essaybuffer above including 0.01% Tween 20 were added and a primary incubation made at 4° C. overnight. The plates were washed 3 times with PBS including 0.01% Tween 20, and then incubated for 2 h at rt with an antirabbit-peroxidase coupled antibody (WA 934, Amersham).

For `Cc1c(CN(C(=O)C2=C(c3ccc(CCCOc4c(F)ccc(F)c4Cl)cc3)C[C@@H]3CC[C@H]2N3)C2CC2)ccnc1OCCCO` (racemic) [Example 1, (rac.)-(1R*, 5S*)-3-{4-[3-(2-Chloro-3,6-difluorophenoxy)propyl]phenyl}-8-azabicyclo[3.2.1]oct-2-ene-2-carboxylic acid cyclopropyl-[2-(3-hydroxy-propoxy)-3-methylpyridin-4-ylmethyl]amide], the IC50 is 0.25 nM.

In the case of `Cc1cc(Cl)c(OCCOc2ccc(C3=C(C(=O)N(Cc4ccnc(OCCCO)c4C)C4CC4)C4CCC(C3)N4)cc2)c(Cl)c1` (racemic) [Example 2, (rac.)-(1R*, 5S*)-3-{4-[2-(2,6Dichloro-4-methylphenoxy)ethoxy]phenyl}-8-azabicyclo[3.2.1]oct-2-ene-2-carboxylic acid cyclopropyl-[2-3-hydroxy-propoxy)-3-methylpyridin4-ylmethyl]amide], the IC50 stood at 0.18 nM.

Turning to `Cc1c(CN(C(=O)C2=C(c3ccc(CCCOc4c(F)ccc(F)c4Cl)cc3)CC3CS(=O)(=O)CC2N3)C2CC2)ccnc1OCCCO` (racemic) [Example 3, (rac.)-(1R*, 5S*)-7-14-[3-(2-Chloro-3,6-difluorophenoxy)propyl]phenyl}-3,3-dioxo-3λ^6-thia-9-azabicyclo[3.3.1]non-6-ene-6-carboxylic acid cyclopropyl-[2-(3-hydroxypropoxy)-3-methylpyridin-4-ylmethyl]amide], the IC50 was 5.51 nM.

Regarding `Cc1c(CN(C(=O)C2=C(c3ccc(CCCOc4c(F)ccc(F)c4Cl)cc3)CC3COCC2N3)C2CC2)ccnc1OCCCO` (racemic) [Example 4, (rac.)-(1R*, 5S*)-7-(4-13-(2-Chloro-3,6-difluorophenoxy)propyl]phenyl}-3-oxa-9-azabicyclo[3.3.1]non-6-ene-6-carboxylic acid cyclopropyl-[2-(3-hydroxypropoxy)-3-methylpyridin-4-ylmethyl]amide], the IC50 was 0.55 nM.

Consider `Cc1c(CN(C(=O)C2=C(c3ccc(CCCOc4c(F)ccc(F)c4Cl)cc3)C[C@@H]3CC[C@H]2N3)C2CC2)ccnc1OCCC(=O)O` (racemic) [Example 5, (rac.)-(1R*, 5S*)-3-(4-{[(3-{4-[3-(2-Chloro-3,6-difluorophenoxy)propyl]-phenyl}-8azabicyclo[3.2.1]oct-2-ene-2-carbonyl)cyclopropylamino]methyl}-3-methyl-pyridin-2-yloxy)propionic acid], for which the IC50 was 3 nM.

As to `COC(=O)CCOc1nccc(CN(C(=O)C2=C(c3ccc(CCCOc4c(F)ccc(F)c4Cl)cc3)CC3CCC2N3)C2CC2)c1C` (racemic) [Example 6, (rac.)-(1R *, 5S*)-3-(4-{[(3-({4-[3-(2-Chloro-3,6-difluorophenoxy)propyl]-phenyl}-8-azabicyclo[3.2.1]oct-2-ene-2-carbonyl)cyclopropylamino]methyl}-3-methylpyridin-2-yloxy)propionic acid methyl ester], the IC50 was found to be 6.7 nM.

Turning to `Cc1c(CN(C(=O)C2=C(c3ccc(CCCOc4c(F)ccc(F)c4Cl)cc3)C[C@@H]3CC[C@H]2N3)C2CC2)ccnc1OCCC(N)=O` (racemic) [Example 7, (rac.)-(1R*, 5S*)-3-{4-[3-(2-Chloro-3,6-difluorophenoxy)propyl]phenyl}-8-azabicyclo[3.2.1]oct-2-ene-2-carboxylic acid [2-(2-carbamoylethoxy)-3-methylpyridin-4-ylmethyl]cyclopropylamide], the IC50 was 3 nM.

The values are drawn from patent US20070135405A1, “Novel diazabicyclononene and tetrahydropyridine derivatives with a new polar side-chain” (priority 2003, published 2007).
